These are literature values, as cited in publication PMC6611794, “Development of a high-throughput strategy for discovery of potent analogues of antibiotic lysocin E” (Nature Communications, 2019).

The data set has as its system S. aureus. The arrangement: method as in PMID 25485686. The conditions noted are these: S. aureus-infected mice; cited from earlier work. The source says:
Lysocin E (1, Fig. 1a) was isolated from Lysobacter sp. as a new antibiotic and structurally determined to be a 37-membered depsipeptide (molecular weight = 1618 Da) with an N-methylated amide and ester linkages. The macrocyclic core of 12 residues contains four different non-proteinogenic D-amino acids (D-Arg-2/7, N-Me-D-Phe-5, D-Gln-9, D-Trp-10) and is appended with (R)-3-hydroxy-5-methylhexanamide. […] Screening of the additives ind ...

For orientation: ED50 means the dose at which the effect has come halfway, by size or by number of responders. For `CN[C@H](CC(C)C)C(=O)N[C@H]1C(=O)N[C@@H](CC(N)=O)C(=O)N[C@H]2C(=O)N[C@H]3C(=O)N[C@H](C(=O)N[C@H](C(=O)O)c4cc(O)cc(O)c4-c4cc3ccc4O)[C@H](O)c3ccc(c(Cl)c3)Oc3cc2cc(c3O[C@@H]2O[C@H](CO)[C@@H](O)[C@H](O)[C@H]2O[C@H]2C[C@](C)(N)[C@H](O)[C@H](C)O2)Oc2ccc(cc2Cl)[C@H]1O` [vancomycin, reference compound], the ED50 is on record as 5.8 mg/kg.
